Measurements taken from patent publication EP0321273A2, “Thioformamide derivatives” (RHONE POULENC RORER LIMITED, priority 1987, dated 1989).

Key:
isolated rat aorta [1] = assay: Test A: activity against contractions induced by low K+ concentrations (20 mM K+) in the isolated rat aorta; format: cell-based; details: concentration reducing the contraction induced by 20 mM K⁺ by 90%; rat thoracic aorta strips denuded of endothelium, Krebs solution, cumulative concentrations; read-out: Activity Test A EC₉₀
Procedure: (§1) The test methods used were adapted from those described by Winslow et al [Eur.J.Pharmacol., 131, 219-228 (1986)] and Karaki [J.Pharmacol. Methods, 18, 1-21 (1987)] for differentiating vaso-relaxant activity.
Test A : Activity against contractions induced by low K⁺ concentrations in the isolated rat aorta
Thoracic aorta was removed from rats and transverse strips, denuded of endothelium, were suspended in a bath containing Krebs solution. The tension was recorded and a contraction induced by addition of 20 mM K⁺ (potassium ion) to the bathing solution. The test compound was added to the bath as a solution in increasing cumulative concentration. The concentration in the bathing solution of the test compound which reduced the K⁺-induced contraction by 90% was determined and expressed in µM as the effective concentration (EC₉₀), given in Table I.

isolated rat aorta [2] = assay: Test B: activity against contractions induced by high K+ concentrations (60 mM K+) in isolated rat aorta; format: cell-based; details: contraction induced by 60 mM K⁺; rat thoracic aorta strips denuded of endothelium, cumulative addition; read-out: concentration in the bath reducing the K⁺-induced contraction by 90%
Procedure: as §1
Test B : Activity against contractions induced by high K⁺ concentrations in isolated rat aorta
The test method was as in Test A except that contractions were induced by addition of 60 mM K⁺ to the bathing solution. The cumulative addition of solutions of the test compound was conducted and the concentration in the bath reducing the K⁺-induced contraction by 90% was greater than 30µM for Compounds C, D, E, F, I, J and K, and much greater than 30µM for Compound A. Table I

Compound: CNC(=S)C1(c2cccc([N+](=O)[O-])c2)CCCCC1=O (racemic) [Compound K, (±)-N-methyl-2-oxo-1-(3-nitrophenyl)cyclohexanecarbothioamide]
- EC90 (isolated rat aorta [1]): 0.7 µM
- IC90 (isolated rat aorta [2]): > 30 µM

Compound: CNC(=S)C1(c2cccc(C(F)(F)F)c2)CCCCC1=O (racemic) [F, (±)-N-methyl-2-oxo-1-(3-trifluoromethylphenyl)cyclohexanecarbothioamide]
- EC90 (isolated rat aorta [1]): 0.9 µM
- IC90 (isolated rat aorta [2]): > 30 µM

Compound: CNC(=S)C1(c2ccccc2)CCCCC1=NOCc1ccc(F)cc1 (racemic) [H, (±)-anti-N-methyl-2-(4-fluorobenzyloxyimino)-1-phenylcyclohexanecarbothioamide]
- EC90 (isolated rat aorta [1]): 0.6 µM

Compound: CNC(=S)C1(c2ccccc2)CCCCC1=NOC (racemic) [Compound D, (±)-anti-N-methyl-2-methoxyimino-1-phenylcyclohexanecarbothioamide]
- EC90 (isolated rat aorta [1]): 20 µM
- IC90 (isolated rat aorta [2]): > 30 µM

Compound: CNC(=S)C1(c2ccc(Cl)c(Cl)c2)CCCCC1=O (racemic) [J, (±)-N-methyl-2-oxo-1-(3,4-dichlorophenyl)cyclohexanecarbothioamide]
- EC90 (isolated rat aorta [1]): 0.4 µM
- IC90 (isolated rat aorta [2]): > 30 µM

Compound: CNC(=S)C1(c2ccccc2)CCCCC1=O (racemic) [Compound A, (±)-N-methyl-2-oxo-1-phenylcyclohexanecarbothioamide]
- EC90 (isolated rat aorta [1]): 29 µM
- IC90 (isolated rat aorta [2]): > 30 µM

Compound: CNC(=S)C1(c2ccc(Cl)cc2)CCCCC1=O (racemic) [E, (±)-N-methyl-2-oxo-1-(4-chlorophenyl)cyclohexanecarbothioamide]
- EC90 (isolated rat aorta [1]): 12 µM
- IC90 (isolated rat aorta [2]): > 30 µM

Compound: CNC(=S)C1(c2ccc3ccccc3c2)CCCCC1=O (racemic) [I, (±)-N-methyl-2-oxo-1-(2-naphthyl)cyclohexanecarbothioamide]
- EC90 (isolated rat aorta [1]): 2 µM
- IC90 (isolated rat aorta [2]): > 30 µM

Compound: CNC(=S)C1(c2ccccc2)CCCCC1=NO (racemic) [Compound C, (±)-anti-N-methyl-2-hydroxyimino-1-phenylcyclohexanecarbothioamide]
- EC90 (isolated rat aorta [1]): > 30 µM
- IC90 (isolated rat aorta [2]): > 30 µM
